The results in this text go back to ChEMBL document CHEMBL3784917, “Recent Progress in Histone Demethylase Inhibitors” (J Med Chem, 2016).

Experiment [1] can be described thus: Antiproliferative activity against human MM1S cells assessed as reduction in cell viability after 120 hrs by ATPlite assay. It counts as functional, cell-based. As to conditions: MM1.S. A general note: ATP-based viability assays read luminescence as a measure of living cells.
Experiment [2] concerns the target T1, Lysine-specific demethylase 3A (Homo sapiens, UniProt Q9Y4C1).
T1 sequence (Q9Y4C1 whole entry): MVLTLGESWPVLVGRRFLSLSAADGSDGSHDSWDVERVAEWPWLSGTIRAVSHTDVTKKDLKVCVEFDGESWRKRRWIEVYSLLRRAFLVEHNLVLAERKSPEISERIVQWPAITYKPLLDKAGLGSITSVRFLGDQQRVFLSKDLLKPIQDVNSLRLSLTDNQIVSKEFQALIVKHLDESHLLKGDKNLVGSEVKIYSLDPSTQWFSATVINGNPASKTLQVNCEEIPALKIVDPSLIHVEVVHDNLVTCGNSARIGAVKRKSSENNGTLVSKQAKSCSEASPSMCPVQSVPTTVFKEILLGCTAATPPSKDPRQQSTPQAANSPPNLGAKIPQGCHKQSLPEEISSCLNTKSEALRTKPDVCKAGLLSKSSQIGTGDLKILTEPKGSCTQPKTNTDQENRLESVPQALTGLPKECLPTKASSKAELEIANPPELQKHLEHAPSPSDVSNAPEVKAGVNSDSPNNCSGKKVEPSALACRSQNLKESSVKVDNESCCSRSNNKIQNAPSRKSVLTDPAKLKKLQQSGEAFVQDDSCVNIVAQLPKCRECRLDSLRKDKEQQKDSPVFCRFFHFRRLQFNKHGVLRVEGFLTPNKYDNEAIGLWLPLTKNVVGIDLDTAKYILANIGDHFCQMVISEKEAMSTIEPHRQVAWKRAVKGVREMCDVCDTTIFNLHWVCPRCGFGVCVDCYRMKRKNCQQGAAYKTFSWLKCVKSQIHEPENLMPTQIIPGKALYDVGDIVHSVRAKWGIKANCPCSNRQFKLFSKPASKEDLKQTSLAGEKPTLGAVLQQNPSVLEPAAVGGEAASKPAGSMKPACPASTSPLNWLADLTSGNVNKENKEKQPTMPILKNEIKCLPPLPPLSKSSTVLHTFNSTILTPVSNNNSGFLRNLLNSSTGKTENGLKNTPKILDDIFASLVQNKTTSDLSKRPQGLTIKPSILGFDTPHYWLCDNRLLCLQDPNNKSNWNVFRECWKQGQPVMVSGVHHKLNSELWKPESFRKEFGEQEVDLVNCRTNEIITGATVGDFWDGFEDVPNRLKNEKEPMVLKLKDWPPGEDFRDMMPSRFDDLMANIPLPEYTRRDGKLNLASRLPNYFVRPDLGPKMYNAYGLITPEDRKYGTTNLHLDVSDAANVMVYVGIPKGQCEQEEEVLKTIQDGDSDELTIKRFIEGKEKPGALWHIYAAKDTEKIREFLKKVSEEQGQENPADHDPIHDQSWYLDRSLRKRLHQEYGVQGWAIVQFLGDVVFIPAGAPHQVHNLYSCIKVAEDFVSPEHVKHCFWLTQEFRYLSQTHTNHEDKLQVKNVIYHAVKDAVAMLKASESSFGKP
The experiment in a line: Inhibition of recombinant human N-terminal FLAG-tagged KDM3A (2 to 1322 residues) expressed in baculovirus infected sf9 cells using biotin-H3K9me as substrate preincubated for 10 mins followed by substrate addition measured after 10 mins by AlphaLisa assay. In general terms: In Alpha technology, singlet oxygen from a donor bead excites a nearby acceptor bead.

For experiment [3], the system named is MCF7. Kind of experiment: Antiproliferative activity against human MCF7 cells assessed as reduction in cell viability after 120 hrs by ATPlite assay. It counts as functional, cell-based. The settings on record: MCF7, 120 h.
The target in experiment [4] is T2, Lysine-specific demethylase 4C (Homo sapiens, UniProt Q9H3R0).
T2 sequence (Q9H3R0 whole entry): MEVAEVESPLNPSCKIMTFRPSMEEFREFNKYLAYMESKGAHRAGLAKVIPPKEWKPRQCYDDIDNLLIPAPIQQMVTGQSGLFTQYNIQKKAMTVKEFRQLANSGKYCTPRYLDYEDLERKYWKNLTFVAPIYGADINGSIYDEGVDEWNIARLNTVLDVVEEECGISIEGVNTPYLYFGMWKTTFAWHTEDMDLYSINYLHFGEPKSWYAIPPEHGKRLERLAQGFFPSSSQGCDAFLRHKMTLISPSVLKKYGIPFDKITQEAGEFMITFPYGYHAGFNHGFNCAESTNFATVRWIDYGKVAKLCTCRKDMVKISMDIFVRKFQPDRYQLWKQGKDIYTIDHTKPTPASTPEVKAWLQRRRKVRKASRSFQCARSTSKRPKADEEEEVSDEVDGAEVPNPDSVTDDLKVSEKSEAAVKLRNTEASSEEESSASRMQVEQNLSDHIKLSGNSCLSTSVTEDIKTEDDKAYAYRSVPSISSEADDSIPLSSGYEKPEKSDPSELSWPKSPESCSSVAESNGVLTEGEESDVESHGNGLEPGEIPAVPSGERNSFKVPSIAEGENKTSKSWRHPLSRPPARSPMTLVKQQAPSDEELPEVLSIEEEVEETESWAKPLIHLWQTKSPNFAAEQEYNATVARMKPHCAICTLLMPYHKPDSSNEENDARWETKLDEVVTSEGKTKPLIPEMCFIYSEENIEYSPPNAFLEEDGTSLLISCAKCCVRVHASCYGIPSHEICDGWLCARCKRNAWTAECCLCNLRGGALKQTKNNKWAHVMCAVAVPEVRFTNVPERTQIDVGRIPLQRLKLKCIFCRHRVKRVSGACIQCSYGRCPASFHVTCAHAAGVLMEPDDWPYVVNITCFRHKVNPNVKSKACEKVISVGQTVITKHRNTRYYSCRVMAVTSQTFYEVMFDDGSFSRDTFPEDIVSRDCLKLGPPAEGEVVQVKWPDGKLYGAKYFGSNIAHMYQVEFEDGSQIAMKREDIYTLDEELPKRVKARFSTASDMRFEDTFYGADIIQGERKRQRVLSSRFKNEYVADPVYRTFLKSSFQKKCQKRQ
The experiment in a line: Inhibition of KDM4C (unknown origin) using H3K9me3 as substrate after 24 hrs by alphascreen assay.

Experiment [5] has as its target Lysine-specific demethylase 4E (Homo sapiens, UniProt B2RXH2). The experiment in a line: Inhibition of KDM4E (unknown origin) after 24 hrs by alphascreen assay.
Experiment [6] has as its target Lysine-specific demethylase 6B (Homo sapiens, UniProt O15054). Kind of experiment: Inhibition of KDM6B (unknown origin) after 24 hrs by alphascreen assay.
Experiment [7] is described as follows: Antiproliferative activity against human BT474 cells assessed as reduction in cell viability after 120 hrs by ATPlite assay. It counts as functional, cell-based. As to conditions: BT-474, 120 h.
Experiment [8] has as its target T1, Lysine-specific demethylase 3A. The experiment in a line: Inhibition of KDM3A (unknown origin) preincubated for 15 mins followed by histone substrate addition measured after 1 hr by alphascreen assay.

Chain of Lysine-specific demethylase 6B (O15054 whole entry): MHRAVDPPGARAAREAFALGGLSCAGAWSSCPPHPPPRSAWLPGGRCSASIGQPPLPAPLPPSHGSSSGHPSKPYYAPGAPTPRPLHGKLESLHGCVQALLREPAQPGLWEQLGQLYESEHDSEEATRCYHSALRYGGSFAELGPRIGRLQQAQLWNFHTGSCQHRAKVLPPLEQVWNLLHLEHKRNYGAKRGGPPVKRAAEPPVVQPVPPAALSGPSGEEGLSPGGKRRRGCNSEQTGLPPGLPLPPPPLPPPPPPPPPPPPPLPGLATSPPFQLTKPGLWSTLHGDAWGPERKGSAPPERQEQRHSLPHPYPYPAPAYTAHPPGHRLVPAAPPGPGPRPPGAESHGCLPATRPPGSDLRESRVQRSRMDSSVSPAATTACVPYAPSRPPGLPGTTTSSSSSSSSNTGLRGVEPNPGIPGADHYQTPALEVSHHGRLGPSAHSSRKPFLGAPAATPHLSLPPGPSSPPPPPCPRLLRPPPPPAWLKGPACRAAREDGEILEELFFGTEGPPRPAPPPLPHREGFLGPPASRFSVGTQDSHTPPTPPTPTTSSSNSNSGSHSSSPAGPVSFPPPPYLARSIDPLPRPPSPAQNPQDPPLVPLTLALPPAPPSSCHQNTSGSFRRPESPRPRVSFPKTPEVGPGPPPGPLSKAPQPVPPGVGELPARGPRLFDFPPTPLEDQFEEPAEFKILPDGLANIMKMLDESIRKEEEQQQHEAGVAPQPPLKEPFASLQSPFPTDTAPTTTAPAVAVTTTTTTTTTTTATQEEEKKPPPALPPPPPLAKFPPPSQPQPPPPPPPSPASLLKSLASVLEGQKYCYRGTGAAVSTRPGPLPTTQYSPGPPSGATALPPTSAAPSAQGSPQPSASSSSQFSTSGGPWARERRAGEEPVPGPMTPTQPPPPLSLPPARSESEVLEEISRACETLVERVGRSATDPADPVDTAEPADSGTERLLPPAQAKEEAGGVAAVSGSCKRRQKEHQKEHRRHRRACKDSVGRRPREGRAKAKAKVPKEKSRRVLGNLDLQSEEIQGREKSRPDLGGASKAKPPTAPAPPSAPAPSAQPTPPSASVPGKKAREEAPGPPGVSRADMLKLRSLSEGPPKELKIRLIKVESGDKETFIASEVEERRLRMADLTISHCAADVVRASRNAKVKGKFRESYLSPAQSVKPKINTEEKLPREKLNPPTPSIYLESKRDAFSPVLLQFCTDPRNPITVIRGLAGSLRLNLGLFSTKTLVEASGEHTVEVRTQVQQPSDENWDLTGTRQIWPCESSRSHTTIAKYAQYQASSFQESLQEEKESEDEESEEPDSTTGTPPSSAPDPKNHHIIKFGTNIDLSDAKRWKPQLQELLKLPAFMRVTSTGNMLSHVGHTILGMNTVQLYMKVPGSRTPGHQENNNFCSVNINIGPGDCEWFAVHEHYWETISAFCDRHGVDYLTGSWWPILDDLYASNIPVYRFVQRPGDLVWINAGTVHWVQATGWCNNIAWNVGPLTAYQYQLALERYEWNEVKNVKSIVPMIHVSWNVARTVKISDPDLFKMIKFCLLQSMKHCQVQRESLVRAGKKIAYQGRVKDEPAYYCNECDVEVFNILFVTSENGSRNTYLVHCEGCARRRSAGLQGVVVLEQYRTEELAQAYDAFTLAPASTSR
Chain of Lysine-specific demethylase 4E (B2RXH2 whole entry): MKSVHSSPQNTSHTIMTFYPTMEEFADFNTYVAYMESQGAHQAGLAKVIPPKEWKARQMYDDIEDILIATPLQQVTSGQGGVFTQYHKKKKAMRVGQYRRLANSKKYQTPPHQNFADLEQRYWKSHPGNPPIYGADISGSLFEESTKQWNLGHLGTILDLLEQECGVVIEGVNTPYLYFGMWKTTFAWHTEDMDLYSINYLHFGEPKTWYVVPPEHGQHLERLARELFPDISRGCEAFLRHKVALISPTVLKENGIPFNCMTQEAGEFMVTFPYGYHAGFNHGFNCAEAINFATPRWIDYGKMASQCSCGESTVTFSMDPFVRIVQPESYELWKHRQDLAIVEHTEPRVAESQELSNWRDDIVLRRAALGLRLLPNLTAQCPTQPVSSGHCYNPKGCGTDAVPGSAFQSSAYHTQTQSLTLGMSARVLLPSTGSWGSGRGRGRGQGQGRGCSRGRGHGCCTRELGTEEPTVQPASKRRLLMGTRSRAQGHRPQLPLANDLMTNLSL

`CCN(CCN(C)C)C(=O)CNCc1cc(CNC(=O)C(F)(F)F)ccn1`: the EC50 (commonly the midpoint of the concentration-response curve) in experiment [1] is < 0.25 µM. Further, the half-inhibitory concentration (IC50) (commonly the concentration needed to halve the response being measured) in experiment [2] is > 2.5 µM.

As for `CCN(CCN(C)C)C(=O)CNCc1cc(C(=O)O)ccn1`, the IC50 in experiment [3] was 1 µM.

Regarding `CCCCCCCCOC(=O)c1ccc(O)c2ncccc12`, the IC50 in experiment [4] was 3.9 µM; in experiment [5], 45 µM; in experiment [6], > 100 µM.

On to `CCN(CC)CCCCNCc1cc(C=O)ccn1`, for which the EC50 in experiment [7] and in experiment [3] was < 0.25 µM each time. Besides, in experiment [2], the IC50 is > 2.5 µM.

In experiment [8], `Cc1ccsc1C(NC(=O)c1ccccc1)c1cc(Cl)c2cccnc2c1O` (racemic) gave an IC50 of 191 µM.
